Reference: US12648892B2, “Emergency eye wash” (Lebrun Labs LLC, priority 2024, dated 2026)
Several values for one entry are separate records, joined by “and”; a condition that tells them apart may be missing. Identical values can stand only once. Entries after “also recorded” stand apart in the source; their conditions may differ. Like-named read-outs stand apart in the source and are kept apart here.

Assays:
[1] = tested on: corneal stromal cell (keratocytes) nuclei; test: Wash bottle study (500-mL bottle, active wash): TUNEL counts and depth of damage (DoD); assay type: cell-based; settings: eyes exposed to 32% sodium hypochlorite, then actively washed 15 min with 500 mL
Protocol: (§1) Whole New Zealand White rabbit eyes were used Prior to exposure a 10-mm internal dosing ring (FIG. 12A, part of the IVD kit) was placed over the central cornea that was then exposed to NaOCl.
(§2) Prior to each experiment (<1 h), NaOCl (CASRN 7681-52-9, Sigma-Aldrich, St. Louis, MO) was freshly diluted in sterile deionized water, mixed by five tube inversions prior to each application, and applied directly to the eyes (corneas) by transferring 100 μL with a micropipette into the dosing ring (FIG. 12A); the corneas were then exposed to this solution for exactly 1 min. Immediately after exposure, corneas were rinsed for exactly 30 s by forcefully dispensing 20 mL saline (9 g/L NaCl) from an eye rinsing syringe (part of the IVD kit). The pH of the 32% NaOCl was measured using a Fisherbrand™ Accumet™ AB150 pH benchtop meter (Fisher Scientific, Waltham, MA).
A 100-ml beaker or 500-mL emergency eye wash bottle (FIG. 12B) was used to prepare the AA solution and wash the eyes (Lebrun and Nguyen, 2024). These containers hold a ready-to-use eye wash buffer (EWB) solution composed of potassium chloride (CASRN 7447-40-7, 2.7 mM; Fisher Scientific), potassium phosphate monobasic (CASRN 7778-77-0, 1.5 mM; Fisher Scientific), sodium chloride (CASRN 7647-14-5, 137.9 mM; Fisher Scientific), sodium phosphate dibasic (CASRN 7782-85-6, 8.1 mM; Sigma Aldrich), deionized water (ReadyRefresh, Stamford, CT), 1% dextran (CASRN 9004-54-0; Sigma Aldrich), and 1% bovine serum albumin (CASRN 9048-46-8; Sigma Aldrich). Before use, different amounts of powdered AA (CASRN 50-81-7; Sigma Aldrich) are dispersed into the liquid component and rapidly mixed to achieve a predefined concentration (Lebrun et al., 2021c, 2021d, 2021e) to form complete EWB+AA. […] The pH of the liquid portion of the wash solution is adjusted to 7.2 with HCl to ensure that the final wash solution for the 0.2% powdered AA reaches a pH of 6.99±0.5. For the 10% AA condition, the pH was further adjusted to 6.99±0.5 with 1 N NaOH. For the EWB only condition, the pH was adjusted to 6.99±0.5 with 1 N HCl. For the wash step, eyes were either passively soaked in beakers (100-mL conditions) or washed with an eyewash bottle (500-mL conditions) for the indicated times. The eyewash bottle allows for forceful spraying and recycling of the 500-mL solution (Lebrun and Nguyen, 2024). While this bottle can be used in vivo or in vitro, for the in vitro study described here, the eyes were placed cornea-side down in the well at the top of the bottle, and the bottles were compressed so that a jet of solution washed over the eye (see FIG. 12B).
The corneas of whole eyes were exposed to either 100 μL of 32% NaOCl for 1 min or 100 μL deionized sterile water for 1 min (control condition) in a dosing ring. Eyes were then rinsed, and all eyes were washed using 500-mL wash bottles (FIG. 12B). Washing was with sterile tap water (municipal water, Anaheim, CA, 0.22-micron pore size filtered), EWB, or EWB+0.2% AA. After “washing,” eyes were processed following the “postexposure” steps described below.
After washing, eyes were placed in fresh postexposure wells (part of the IVD kit) containing approximately 1.5 mL OM added to the level of the limbus. Eyes were then placed back into a humidified, 5% CO2, 37° C. incubator for 24 h. Corneas were then removed by dissection, placed in 4% paraformaldehyde in phosphate-buffered saline (fixative; Boston BioProducts, Inc., Milford, MA), and stored at 4° C.
After a minimum of 24 h in fixative, corneas were cut in half and infiltrated with 30% sucrose (Capella et al., 1965), and the tissues were then embedded in Tissue-Tek® O.C.T. compound (Sakura Finetek, Torrance, CA), snap frozen in liquid nitrogen, and stored in an ultralow freezer (−80° C., New Brunswick Scientific, Hamburg, Germany). […]

[2] = tested on: corneal stromal cell (keratocytes) nuclei; test: NaOCl titration study, TUNEL positive nuclei counts; assay type: cell-based; settings: New Zealand White, rabbit, 1 min, 8 %
Protocol: as §1
as §2, with “Immediately after exposure, corneas were rinsed for exactly 30 s by forcefully dispensing 20 mL saline (9 g/L NaCl) from an eye rinsing syringe (part of the IVD kit).” left out, “MA). […]” for “MA).”
Stained sections were viewed using a Leica DMRE fluorescence microscope (Leica Microsystems Inc., Buffalo Grove, IL). […] An L5 Fluorescence Filter Cube (Leica Microsystems Inc., Buffalo Grove, IL) was used for TUNEL and DoD imaging. Images were processed and analyzed using ImageJ software, version 1.54 (Schneider et al., 2012). […] Three corneal cryosections, each approximately 2.3 mm long and 0.5-0.9 mm wide (depending on swelling), were measured for each eye. To count TUNEL-positive nuclei, the number of discrete TUNEL-positive nuclei in the stroma that meet the size parameters associated with a keratocyte nucleus were recorded for each section using ImageJ software. […]

[3] = pH measurement of solutions; assay type: physicochemical; settings: 32% NaOCl
Protocol: In another study, how quickly washing must be initiated was studied. AA wash was formulated as described above and used just after injury, 10 minutes after injury or 2 hours after injury. […] However this solution took 3.5 hours of rapid mixing to fully go into solution and the another 1.5 hours to adjust the pH which initially feel below to a pH of 3.25.
as §2

cornea = settings: cited from earlier work

For Water, the “Depth of Damage (DoD), AVG ± SE (overall average)” value [1] was 59.6 ± 3.6%, the “Depth of Damage (DoD), S. AVG ± SE (section average per eye)” value [1] was 44.2 ± 2.8% and 68.5 ± 0.5% and 60.9 ± 0.7% and the “TUNEL positive nuclei count, AVG ± SE (overall average)” value (“TUNEL positive nuclei count, AVG ± SE” below) [1] was 254.9 ± 17.8. For the same compound, the “TUNEL positive nuclei count, S. AVG ± SE (section average per eye)” value [1] was 231.0 ± 4.0 and 238.0 ± 2.6 and 287.7 ± 4.1, the “TUNEL positive nuclei count, AVG ± SE” value ([1]; listed as tap water) was 254.9±17.8 and the “Depth of Damage (DoD), AVG ± SE (overall average)” value ([1]; listed as water) was 59.6±3.6%. For the same compound, the “Depth of Damage (DoD), S. AVG ± SE (section average per eye)” value ([1]; listed as water) was 44.2±2.8% and 68.5±0.5% and 60.9±0.7%, the “TUNEL positive nuclei count, AVG ± SE” value ([1]; listed as water) was 254.9±17.8 and the “TUNEL positive nuclei count, S. AVG ± SE (section average per eye)” value ([1]; listed as water) was 231.0±4.0 and 238.0±2.6 and 287.7±4.1. For the same compound, the “Depth of Damage (DoD), Section A” value ([1]; per eye) was 47.0% and 68.4% and 62.3%, the “Depth of Damage (DoD), Section B” value ([1]; per eye) was 41.4% and 69.4% and 59.8% and the “TUNEL positive nuclei count, Section A” value ([1]; per eye) was 227.0 and 234.0 and 289.0. The “TUNEL positive nuclei count, Section B” value ([1]; per eye) was 235.0 and 243.0 and 280.0, the “Depth of Damage (DoD), Section A” value ([1]; per eye, listed as water) was 47.0% and 68.4% and 62.3% and the “Depth of Damage (DoD), Section B” value ([1]; per eye, listed as water) was 41.4% and 69.4% and 59.8%. For the same compound, the “Depth of Damage (DoD), Section C” value ([1]; per eye, listed as water) was 67.6% and 60.7%, the “TUNEL positive nuclei count, Section A” value ([1]; per eye, listed as water) was 227.0 and 234.0 and 289.0 and the “TUNEL positive nuclei count, Section B” value ([1]; per eye, listed as water) was 235.0 and 243.0 and 280.0. For the same compound, the “TUNEL positive nuclei count, Section C” value ([1]; per eye, listed as water) was 237.0 and 294.0.

In the case of `OCl` [NaOCl, sodium hypochlorite], the “TUNEL positive nuclei count, AVG ± SE” value [2] is reported as 3.1 ± 3.1 and the pH [3] is reported as 12.04 and 12.

For `O=C1O[C@H]([C@@H](O)CO)C(O)=C1O` [AA, ascorbic acid], the “effect on corneal ulceration” value (cornea; subcutaneous injection of 15% AA solution within 3 h of the burn, once daily) is listed as “ineffective; also recorded: not effective” and the “effect on corneal ulceration” value (cornea; topical 10% AA eye drop pH 7.2, 2 h after the burn and hourly for 14 h per day) is listed as “reduced corneal ulceration”.
